Source: US20190209472A1, “FORMULATIONS FOR DERMAL DELIVERY OF POLYMER CONJUGATES OF INDOLOCARBAZOLE COMPOUNDS WITH REDUCED EXPOSURE” (Sienna Biopharmaceuticals, Inc., priority 2017, published 2019)
Read-outs that look alike come from different tables or passages of the source.

Columns and labels:
[1] = tested on: lesions of psoriasis vulgaris
From the text: This was a Phase I, single-center, randomized, double-blind, placebo-controlled study in male and female patients with stable psoriasis vulgaris aged >18 and <71 years. Sixteen patients were enrolled in 2 treatment groups. […] Patients attended a screening visit within 21 days prior to Day 1. Patients were then admitted to the CPU in the afternoon of Day −1 and remained resident in the CPU until the morning of Day 8. Patients attended a follow-up visit 7 to 10 days after the last treatment administration on Day 7.
The ointment was applied by the CPU staff, using a spatula and finger cot.
Physicians Global Assessment (PGA) scores were assessed at screening, Day 1, Day 7 and at follow-up. Digital photographs of the application sites were also taken on admission to the CPU, Day 7 and at follow-up.

TrkA kinase = TrkA kinase (Homo sapiens, UniProt P04629)
TrkA kinase, sequence (P04629 33-796): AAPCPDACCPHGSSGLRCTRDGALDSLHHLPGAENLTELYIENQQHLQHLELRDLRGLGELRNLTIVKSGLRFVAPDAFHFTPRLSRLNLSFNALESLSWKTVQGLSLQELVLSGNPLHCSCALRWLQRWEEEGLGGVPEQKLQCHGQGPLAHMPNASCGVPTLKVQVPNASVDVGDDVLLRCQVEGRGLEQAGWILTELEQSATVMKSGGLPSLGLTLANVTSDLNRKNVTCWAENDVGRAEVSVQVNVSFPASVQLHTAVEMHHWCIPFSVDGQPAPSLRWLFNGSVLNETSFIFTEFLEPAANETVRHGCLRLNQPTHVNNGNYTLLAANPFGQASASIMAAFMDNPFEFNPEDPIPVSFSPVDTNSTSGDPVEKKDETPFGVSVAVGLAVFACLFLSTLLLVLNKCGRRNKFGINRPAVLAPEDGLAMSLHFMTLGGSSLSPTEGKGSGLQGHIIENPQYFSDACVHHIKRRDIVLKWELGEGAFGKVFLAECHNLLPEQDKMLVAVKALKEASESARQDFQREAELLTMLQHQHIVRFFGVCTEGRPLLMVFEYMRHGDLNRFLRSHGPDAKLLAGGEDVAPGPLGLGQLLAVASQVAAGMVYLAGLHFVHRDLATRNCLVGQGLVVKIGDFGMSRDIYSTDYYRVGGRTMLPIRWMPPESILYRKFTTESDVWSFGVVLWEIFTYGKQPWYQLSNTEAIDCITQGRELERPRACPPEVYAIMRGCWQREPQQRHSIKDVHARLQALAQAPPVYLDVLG

For “(9S, 10R, 12R)-10-(3′-mPEG2000-1′,3′-oxazolidine-2′,4′-dione)-2,3,9,10,11,12-hexahydro-9-methyl-1-oxo-9,12-epoxy-1H-diindolo[1,2,3-fg:3′,2′,1′-k,l]pyrrolo[3,4-i][1,6] benzodiazocine] [CT327]”, the “PGA Scaling 3: MODERATE, COARSE SCALE PREDOMINATES, patients (%)” value (from here on “PGA Scaling 3: MODERATE … (%)”) ([1]; Plaque 2, DAY 1, N = 12) was “(8.3%)”, the “PGA Scaling 4: MARKED, THICK, NON-TENACIOUS SCALE DOMINATES, patients (%)” value ([1]; Plaque 2, DAY 1, N = 12) was “(8.3%)” and the “Physician Static Global Score 2: MILD, patients (%)” value ([1]; Plaque 2, DAY 1, N = 12) was “(25.0%)”. The “Physician Static Global Score 3: MODERATE, patients (%)” value ([1]; Plaque 2, DAY 1, N = 12) was “(8.3%)”, the “PGA Erythma 2: LIGHT RED COLOURATION, patients (%)” value ([1]; Plaque 2, DAY 7, N = 12) was “(25.0%)” and the “PGA Erythma 3: MODERATE RED COLOURATION, patients (%)” value ([1]; Plaque 2, DAY 7, N = 12) was “(8.3%)”. The “PGA Induration 1: MINIMAL PLAQUE ELEVATION, =0.25 MM, patients (%)” value ([1]; Plaque 2, DAY 7, N = 12) was “(25.0%)”, the “PGA Induration 2: MILD PLAQUE ELEVATION, =0.5 MM, patients (%)” value ([1]; Plaque 2, DAY 7, N = 12) was “(8.3%)” and the “PGA Scaling 1: MINIMAL, OCCASIONAL FINE SCALE OVER LESS THAN 5% OF THE LESION, patients (%)” value ([1]; Plaque 2, DAY 7, N = 12) was “(16.7%)”. The “PGA Scaling 2: MILD, FINE SCALE DOMINATES, patients (%)” value (“PGA Scaling 2: MILD … (%)” below) ([1]; Plaque 2, DAY 7, N = 12) was “(16.7%)”, the “Physician Static Global Score 1: MINIMAL, patients (%)” value ([1]; Plaque 2, DAY 7, N = 12) was “(8.3%)” and the “Physician Static Global Score 2: MILD, patients (%)” value ([1]; Plaque 2, DAY 7, N = 12) was “(25.0%)”. The “PGA Erythma 2: LIGHT RED COLOURATION, patients (%)” value ([1]; Plaque 2, FOLLOW-UP, N = 12) was “(33.3%)”, the “PGA Induration 1: MINIMAL PLAQUE ELEVATION, =0.25 MM, patients (%)” value ([1]; Plaque 2, FOLLOW-UP, N = 12) was “(8.3%)” and the “PGA Induration 2: MILD PLAQUE ELEVATION, =0.5 MM, patients (%)” value ([1]; Plaque 2, FOLLOW-UP, N = 12) was “(25.0%)”. For the same substance, the “PGA Scaling 1: MINIMAL, OCCASIONAL FINE SCALE OVER LESS THAN 5% OF THE LESION, patients (%)” value ([1]; Plaque 2, FOLLOW-UP, N = 12) was “(8.3%)”, the “PGA Scaling 2: MILD … (%)” value ([1]; Plaque 2, FOLLOW-UP, N = 12) was “(25.0%)” and the “Physician Static Global Score 2: MILD, patients (%)” value ([1]; Plaque 2, FOLLOW-UP, N = 12) was “(33.3%)”. The “PGA Erythma 2: LIGHT RED COLOURATION, patients (%)” value ([1]; Plaque 2, SCREENING, N = 12) was “(33.3%)”, the “PGA Erythma 3: MODERATE RED COLOURATION, patients (%)” value ([1]; Plaque 2, SCREENING, N = 12) was “(25.0%)” and the “PGA Induration 1: MINIMAL PLAQUE ELEVATION, =0.25 MM, patients (%)” value ([1]; Plaque 2, SCREENING, N = 12) was “(8.3%)”. The “PGA Induration 2: MILD PLAQUE ELEVATION, =0.5 MM, patients (%)” value ([1]; Plaque 2, SCREENING, N = 12) was “(33.3%)”, the “PGA Induration 3: MODERATE PLAQUE ELEVATION, =0.75 MM, patients (%)” value ([1]; Plaque 2, SCREENING, N = 12) was “(8.3%)” and the “PGA Induration 4: MARKED PLAQUE ELEVATION, =1 MM, patients (%)” value ([1]; Plaque 2, SCREENING, N = 12) was “(8.3%)”. For the same substance, the “PGA Scaling 2: MILD … (%)” value ([1]; Plaque 2, SCREENING, N = 12) was “(16.7%)”, the “PGA Scaling 3: MODERATE … (%)” value ([1]; Plaque 2, SCREENING, N = 12) was “(33.3%)” and the “PGA Scaling 4: MARKED, THICK, NON-TENACIOUS SCALE DOMINATES, patients (%)” value ([1]; Plaque 2, SCREENING, N = 12) was “(8.3%)”. The “Physician Static Global Score 2: MILD, patients (%)” value ([1]; Plaque 2, SCREENING, N = 12) was “(33.3%)”, the “Physician Static Global Score 3: MODERATE, patients (%)” value ([1]; Plaque 2, SCREENING, N = 12) was “(16.7%)” and the “Physician Static Global Score 4: MARKED, patients (%)” value ([1]; Plaque 2, SCREENING, N = 12) was “(8.3%)”. The “PGA Erythma 2: LIGHT RED COLOURATION, patients (%)” value ([1]; Plaque 3, DAY 1, N = 12) was “(16.7%)”, the “PGA Induration 2: MILD PLAQUE ELEVATION, =0.5 MM, patients (%)” value ([1]; Plaque 3, DAY 1, N = 12) was “(8.3%)” and the “PGA Induration 3: MODERATE PLAQUE ELEVATION, =0.75 MM, patients (%)” value ([1]; Plaque 3, DAY 1, N = 12) was “(8.3%)”. For the same substance, the “PGA Scaling 2: MILD … (%)” value ([1]; Plaque 3, DAY 1, N = 12) was “(8.3%)”, the “PGA Scaling 4: MARKED, THICK, NON-TENACIOUS SCALE DOMINATES, patients (%)” value ([1]; Plaque 3, DAY 1, N = 12) was “(8.3%)” and the “Physician Static Global Score 2: MILD, patients (%)” value ([1]; Plaque 3, DAY 1, N = 12) was “(8.3%)”. For the same substance, the “Physician Static Global Score 3: MODERATE, patients (%)” value ([1]; Plaque 3, DAY 1, N = 12) was “(8.3%)”, the “PGA Erythma 2: LIGHT RED COLOURATION, patients (%)” value ([1]; Plaque 3, DAY 7, N = 12) was “(8.3%)” and the “PGA Erythma 3: MODERATE RED COLOURATION, patients (%)” value ([1]; Plaque 3, DAY 7, N = 12) was “(8.3%)”. For the same substance, the “PGA Induration 1: MINIMAL PLAQUE ELEVATION, =0.25 MM, patients (%)” value ([1]; Plaque 3, DAY 7, N = 12) was “(16.7%)”, the “PGA Scaling 2: MILD … (%)” value ([1]; Plaque 3, DAY 7, N = 12) was “(16.7%)” and the “Physician Static Global Score 2: MILD, patients (%)” value ([1]; Plaque 3, DAY 7, N = 12) was “(16.7%)”. The “PGA Erythma 2: LIGHT RED COLOURATION, patients (%)” value ([1]; Plaque 3, FOLLOW-UP, N = 12) was “(16.7%)”, the “PGA Induration 1: MINIMAL PLAQUE ELEVATION, =0.25 MM, patients (%)” value ([1]; Plaque 3, FOLLOW-UP, N = 12) was “(8.3%)” and the “PGA Induration 2: MILD PLAQUE ELEVATION, =0.5 MM, patients (%)” value ([1]; Plaque 3, FOLLOW-UP, N = 12) was “(8.3%)”. For the same substance, the “PGA Scaling 2: MILD … (%)” value ([1]; Plaque 3, FOLLOW-UP, N = 12) was “(16.7%)”, the “Physician Static Global Score 2: MILD, patients (%)” value ([1]; Plaque 3, FOLLOW-UP, N = 12) was “(16.7%)” and the “PGA Erythma 2: LIGHT RED COLOURATION, patients (%)” value ([1]; Plaque 3, SCREENING, N = 12) was “(8.3%)”. For the same substance, the “PGA Erythma 3: MODERATE RED COLOURATION, patients (%)” value ([1]; Plaque 3, SCREENING, N = 12) was “(16.7%)”, the “PGA Induration 2: MILD PLAQUE ELEVATION, =0.5 MM, patients (%)” value ([1]; Plaque 3, SCREENING, N = 12) was “(8.3%)” and the “PGA Induration 3: MODERATE PLAQUE ELEVATION, =0.75 MM, patients (%)” value ([1]; Plaque 3, SCREENING, N = 12) was “(8.3%)”. For the same substance, the “PGA Induration 4: MARKED PLAQUE ELEVATION, =1 MM, patients (%)” value ([1]; Plaque 3, SCREENING, N = 12) was “(8.3%)”, the “PGA Scaling 3: MODERATE … (%)” value ([1]; Plaque 3, SCREENING, N = 12) was “(16.7%)” and the “PGA Scaling 4: MARKED, THICK, NON-TENACIOUS SCALE DOMINATES, patients (%)” value ([1]; Plaque 3, SCREENING, N = 12) was “(8.3%)”. The “Physician Static Global Score 2: MILD, patients (%)” value ([1]; Plaque 3, SCREENING, N = 12) was “(8.3%)”, the “Physician Static Global Score 3: MODERATE, patients (%)” value ([1]; Plaque 3, SCREENING, N = 12) was “(8.3%)” and the “Physician Static Global Score 4: MARKED, patients (%)” value ([1]; Plaque 3, SCREENING, N = 12) was “(8.3%)”. For the same substance, the “Inhibition of human keratinocyte proliferation in vitro” value (human keratinocyte) was “clear inhibitory activity” and the “Inhibition of TrkA kinase” value (TrkA kinase) was “inhibitor of TrkA kinase at nanomolar levels”.
